“Also recorded” adds a separate entry of the source.
Assays:
[1] = Tanshinone bile excretion and intrahepatic transformation; assay type: in vivo, rats
Experimental: The experimental animal is male rats each weighs 350-400 g. Intraperitoneal anesthesia with 10% of 1 g/kg malarin is employed. Insert it into the common bile duct with infantile scalp needle. After it is fixed, collect bile, for 1 hour quantity, to be used as blank contrast. Small amount of dimethyl formamide added to the medicine. And then, 1% carboxymethyl cellulose is diluted to 10 mg/ml. Administer to the duodenum and followed by scheduled fixed quantity of bile collection. The bile stays overnight in the fridge. Abstract twice with chloroform and combine with chloroform liquid. Conduct water bath and dry it by evaporation. Keep it in the desiccators. Before the test, fixed quantity dilution is conducted by using 50 ml chloroform and followed by high pressure liquid's separation and fixation of quantity. The change of Tanshinone in the liver hemogenate: After a larger male […], weighs 160 g, is anesthetized, its liver is taken and weighed. Use 0.15M potassium chloride and 0.24M amide to manufacture hemogenate. Use double-deck gauze for filtrating. Again, with the above-mentioned solution, dilute the filtrate to every 10 ml which equals to the 6 g weight of the liver tissue. Add 4 ml of pH 7.4 phosphoric buffer solution and 2 ml liver hemogenate to the 100 ml conical flask. 1 mg specimen of Tanshinone dissolves in 95% of 0.2 ml ethanol. 0.2 ml of 95% ethanol liquid, which contains no tashinone, is added to the control group. Keep it warm at 37° C. for 2 hours. When the reaction ceases, use 12 ml chloroform to extract twice separately. Merge with the extract, and conduct water bath and dry it by evaporation. Before the test, the specimen is dissolved with 100 ml chloroform. Use the thin layer for separating and quantity fixing [silica-CMC thin layer; developer is benzene-acetone (95:5)]. […] The peak of excretion takes place in about 3 hours after the administration. […] Quantity of Tanshinone IIA in the bile excretion from animal of such group is 5 to 10 times higher than the Tanshinone IIA group. […]

[2] = puerarin aglycone, left ventricular function index; assay type: in vivo; conditions: dog
Excerpt: Study proves puerarin is able to mitigate the angina pectoris, contracted, remarkably and improve the ischemic electrocardiogram. It reduces the myocardial oxygen consumption. Puerarin can slow down the rate of the heart pulsation and enhance the myocardial systolic power. […] Puerarin is able to outstandingly reduce the tension-time index (TTI) and the ascending rate of the left ventricular pressure. The effect of puerarin on ischemic myocardium is reducing the resistance of the coronary artery's lateral branch. Puerarin is able to mitigate clearly the PG angina pectoris and improve the ischemic electrocardiogram. […] It enables the reduction of coronary artery's resistance and the increase of coronary artery's flow volume. Thus, it is advantageous to the improvement of balance of supply and need. And also, it has the obvious effect on resisting the arrhythmia.

solubility = test: solubility
Experimental: Matrine is also called matricaria. Its molecular formula is C15H24N2O and its molecular weight is 248.36. It has four isomers: α, β, γ, and δ isomers. α-matrine is the one commonly seen. It is a needle or rhombohedral crystal, having a melting point 76° C. and [α]D+39.1° (H2O).
Oxymatrine has a molecular formula C15H24N2O2 and a molecular weight 264.36. It is a colorless columnar crystal (Me2CO), melting point 162° C. (hydrate), 207° C. (anhydrate), [α]D+47.7° (C2H5OH). […] It can change to matrine through reaction with SO2.

[3] = system: isolated guinea pig's right and left atrium; test: isolated guinea pig's atria
Excerpt: The effect of alkaloids on heart function is studied. […] Furthermore, it presents dosage dependent relation. The function of its negative frequency, positive inotropic action and negative maximum driving force (MDF) appears to be linear correlation. Matrine is able to inhibit the aconitine to induce the rats's left atrial automatic rhythmicity effect, or, prolong the aconitine to induce the latent period's auto-rhythmicity or slow down its initial frequency. Also, it is able to heighten the ouabin to induce the guinea pig's right atrial arrhythmia and the adrenal gland injection to induce the auto-consistency of guinea pig's left atrium. Moreover, it has the enhancement effect on the positive inotropic action of ouabin.
In fact, all of them are dosage dependence relation. […] It clearly prolongs inducement of the latent period of auto-rhythmicity and slows down the inducement of auto-rhythmicity's initial frequency. It is also able to raise ouabin to induce the isolated guinea pig's right atrial arrhythmia and the adrenal gland inducing the isolated guinea pig's left atrial auto-rhythmicity's consistency.

[4] = intravenous matrine injection in cat; assay type: in vivo; conditions: 1 mg/kg i.v.
Excerpt: The curative effect of matrine upon the premature heartbeat, caused by various reasons, is relatively better. It is partially effective on the supraventricular arrhythmia. In clinical study, matrine's tablet is employed to treat 167 cases of arrhythmia.

[5] = intravenous matrine in rats: arrhythmia and ECG; assay type: in vivo
Excerpt: (§1) It is antagonistic to the acceleration of heart rate induced by isopropylnoradrenaline.

[6] = system: isolated rats's right atrium; test: isolated rats's right atrium
Excerpt: as §1

[7] = intramuscular matrine crystal in dog
Experimental: Intramuscular injection of matrine crystal 200 mg/kg given to the dog. […] Dog is administrated with daily intramuscular injection 0.5 g. […] 1-3 treatment courses are carried out altogether.

[8] = subcutaneous injection; cited from earlier work
[9] = pharmacokinetics of oxymatrine and matrine in mice; conditions: mouse, in vivo

Molecule: C[C@H]1COC2=C1C(=O)C(=O)c1c2ccc2c1CCCC2(C)C [latent Tanshinone]
- transformation in the liver ([1]; rat, in vivo): can transform into Tanshinone IIA

Molecule: O=c1c(-c2ccc(O)cc2)coc2cc(O)ccc12 [puerarin aglycone]
- lowering of left ventricular function index [2]: 14.3%

Molecule: Matrine
- solubility (solubility): soluble in water, benzene, chloroform, ether and carbon sulfide and nearly insoluble in petroleum ether
- left atrial maximum driving force (MDF) [3]: reduces the left atrial maximum driving force
- right atrial systolic power [3]: increases the right atrial systolic power
- aconitine-induced left atria automatic rhythmicity ([3]; 3 μmol/L): significantly inhibits
- automatic frequency of right atrium ([3]; dosage dependent): slow down the automatic frequency of guinea pig's right atrium; also recorded: obvious negative frequency effect
- blood flow capacity of the coronary artery [4]: increases
- heart rate [4]: slowdown of cat's heart rate emerges
- heart rate ([5]; 18.75 mg/kg): heart rate slows down clearly
- arrhythmia caused by aconitine, barium chloride and ligation of coronary artery ([5]; i.v.): significantly able to resist the arrhythmia
- calcium-antagonism effect [6]: no calcium-antagonism effect
- right atrial spontaneous frequency [6]: clearly slows down
- abnormal phenomenon ([7]; 200 mg/kg intramuscular, 6 hours of observation): no abnormal phenomenon except slightly being quiet
- mental state, activity condition and hemogram ([7]; 0.5 g daily intramuscular, 14 days): no apparent abnormal phenomenon
- pathologic examination of the myocardium ([7]; 0.5 g daily, 13-day courses, 1-3 courses): no obvious change
- LD50 [8]: 297 ± 18 mg/kg
- gastrointestinal absorption [9]: easier to be absorbed by the gastrointestinal tract

Molecule: Tanshinone
- time of peak of bile excretion ([1]; duodenal administration): about 3 hours
- time until Tanshinone is found in the bile ([1]; duodenal administration): in about an hour
